The source of these data is patent US7781432B2 (Gruenenthal GmbH, priority 2004, dated 2010).

As a reminder, the melting point is the temperature, or range, at which the solid turns liquid. What is called Ki is the equilibrium dissociation constant of an inhibitor or competing ligand from its target. A higher Ki goes with weaker binding.

The first data set deals with T1, Nucleoside Transporter (Homo sapiens, UniProt Q99808).
T1 sequence (Q99808 1-456): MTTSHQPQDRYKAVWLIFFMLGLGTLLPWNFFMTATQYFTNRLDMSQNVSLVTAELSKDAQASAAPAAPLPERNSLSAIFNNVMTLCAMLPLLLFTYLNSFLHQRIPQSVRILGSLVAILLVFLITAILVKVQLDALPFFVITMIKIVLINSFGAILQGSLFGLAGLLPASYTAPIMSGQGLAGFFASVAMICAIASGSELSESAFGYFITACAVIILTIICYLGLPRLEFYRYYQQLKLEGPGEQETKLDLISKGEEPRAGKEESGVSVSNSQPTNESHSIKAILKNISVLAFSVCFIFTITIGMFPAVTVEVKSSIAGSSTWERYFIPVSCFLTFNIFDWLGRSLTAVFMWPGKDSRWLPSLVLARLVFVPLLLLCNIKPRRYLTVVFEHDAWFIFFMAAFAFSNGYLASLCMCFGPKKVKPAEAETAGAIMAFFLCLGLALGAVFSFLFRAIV
Briefly: radioligand binding assay with [3H]NBTI on human erythrocyte membranes. Particulars: [[…] 1.5 nM, test concentration not printed (footnote c missing).
In the case of `OC[C@H]1O[C@@H](n2c(N3CCOCC3)nc3c(SCc4ccccc4)ncnc32)[C@H](O)[C@@H]1O` [Example 13], the “Binding Nucleoside Transporter (value printed as % in the Ki column)” value worked out at 33%^c.

Tested on in the next data set: not given
Assay: not given
Settings: not given
The compound `O=[N+]([O-])c1ccc(CSc2ncnc3c2nc(NC2CCCC2)n3Cc2ccccc2)cc1` [Example 14, 9-benzyl-8-(cyclopentylamine)-6-(4-nitrobenzyl)-mercaptopurine] returned a melting point of 150 to 151 °C.
`O=[N+]([O-])c1ccc(CSc2ncnc3c2nc(NC2CCCCC2)n3Cc2ccccc2)cc1` [Example 15, 9-benzyl-8-(cyclohexylamine)-6-(4-nitrobenzyl)-mercaptopurine]: the melting point fell in the range of 66 to 68 °C.

The target of a further data set is T1, Nucleoside Transporter.
Assay: not given
The following applies: pH 7.4.
Take “6-benzyl-8-(cyclohexylamino)-thioinosine [Example 10]”: the Ki is 0.94 nM.
Consider `O=[N+]([O-])c1ccc(CSc2ncnc3c2nc(NC2CCCC2)n3Cc2ccccc2)cc1` [Example 14, 9-benzyl-8-(cyclopentylamine)-6-(4-nitrobenzyl)-mercaptopurine], for which the affinity corresponds to a Ki of 29 nM.
Consider `O=[N+]([O-])c1ccc(CSc2ncnc3c2nc(NC2CCCCC2)n3Cc2ccccc2)cc1` [Example 15, 9-benzyl-8-(cyclohexylamine)-6-(4-nitrobenzyl)-mercaptopurine], for which the Ki turned out to be 55 nM.
The same measure, in the same setting: for `OC[C@H]1O[C@@H](n2c(N3CCCC3)nc3c(SCc4ccccc4)ncnc32)[C@H](O)[C@@H]1O` [Example 11, 6-benzyl-8-pyrrolidino-thioinosine] the value was 410 nM.
Take `CCNc1nc2c(SCc3ccccc3)ncnc2n1[C@@H]1O[C@H](CO)[C@@H](O)[C@H]1O` [Example 2, 6-benzyl-8-ethylamino-thioinosine]: the Ki is 9.5 nM.
`CCC(C)CNc1nc2c(SCc3ccccc3)ncnc2n1[C@@H]1O[C@H](CO)[C@@H](O)[C@H]1O` (stereo partly shown) [Example 7, 6-benzyl-8-[(2-methyl-butyl)-amino]-thioinosine] returned a Ki of 3.6 nM.
In turn, “9-benzyl-6-(4-nitrobenzyl)-8-pyrrolidino-mercaptopurine [Example 16]” yielded an inhibitory constant (Ki) of 1520 nM.
Compound `OC[C@H]1O[C@@H](n2c(NC3CC3)nc3c(SCc4ccccc4)ncnc32)[C@H](O)[C@@H]1O` [Example 8, 6-benzyl-8-(cyclopropylamino)-thioinosine] gave a Ki of 3 nM.
“6-benzyl-8-(n-pentylamino)-thioinosine [Example 5]” showed a Ki of 2.3 nM.
On to `OC[C@H]1O[C@@H](n2c(N3CCCCC3)nc3c(SCc4ccccc4)ncnc32)[C@H](O)[C@@H]1O` [Example 12, 6-benzyl-8-piperidino-thioinosine], for which the affinity corresponds to a Ki of 744 nM.
Compound `OC[C@H]1O[C@@H](n2c(NC3CCCC3)nc3c(SCc4ccccc4)ncnc32)[C@H](O)[C@@H]1O` [Example 9, 6-benzyl-8-(cyclopentylamino)-thioinosine] came in with a Ki of 0.64 nM.
Same read-out and setting: in the case of `CCCNc1nc2c(SCc3ccccc3)ncnc2n1[C@@H]1O[C@H](CO)[C@@H](O)[C@H]1O` [Example 3, 6-benzyl-8-(n-propylamino)-thioinosine] it was 5.3 nM.
Same read-out and setting: in the case of “6-benzyl-8-(n-butylamino)-thioinosine [Example 4]” it was 5.4 nM.

In a further data set the target is T1, Nucleoside Transporter. Put plainly: biochemical.
Settings: not given
With `c1ccc(CSc2ncnc3c2nc(N2CCOCC2)n3Cc2ccccc2)cc1` [Example 20, 9-benzyl-6-benzylsulfanyl-8-morpholin-4-yl-9H-purine], affinity was put at a Ki of 1390 nM.
On to `c1ccc(Cn2c(N3CCOCC3)nc3c(SCc4ccc5nonc5c4)ncnc32)cc1` [Example 19, 6-(benzo[c][1,2,5]oxadiazole-5-ylmethylsulfanyl)-9-benzyl-8-morpholin-4-yl-9H-purine], for which the Ki is 122 nM.
On the same count and under the same terms, for `c1ccc(CSc2ncnc3c2nc(N2CCCC2)n3Cc2ccccc2)cc1` [Example 21, 9-benzyl-6-benzylsulfanyl-8-pyrrolidin-1-yl-9H-purine] the value was 514 nM.
